Laboratory results: paper PMC11233548 (Communications Biology, 2024)

Test system: B-RBD-D211A, D213A
Test: BRET-titration Gal1/B-RBD-D211A, D213A
Type: cell-based, human
Details: versus wild-type, n = 3

“Gal1: galectin-1, H-Ras nanocluster scaffold” was tested, and the “BRETtop, Gal1/B-RBD-D211A, D213A” value was “significantly reduced”.
